According to ChEMBL document CHEMBL1141761, “Constituents of the pericarp of Garcinia subelliptica” (J Nat Prod, 2005):
Converted amounts (≈) assume the structure as drawn. The source made the active and inactive calls. The calls are words filed in the database; no cut-off is given here.

Assays:
HT-29 = assay: Cytotoxicity against human HT-29 cells by MTT assay; type: functional, cell-based
[1] = (§1) Cytotoxicity against human Hep3B cells by MTT assay; type: functional, cell-based, Hep 3B2
MCF7 = assay: Cytotoxicity against human MCF7 cells by MTT assay; type: functional, cell-based
Hep 3B2 = assay: as §1; type: functional, cell-based

| SMILES | IC60 (HT-29) | IC50 [1] | IC50 (MCF7) | Activity (HT-29) | Activity (Hep 3B2) | Activity (MCF7) | IC50 (HT-29) |
| --- | --- | --- | --- | --- | --- | --- | --- |
| O=c1[nH]cc(F)c(=O)[nH]1 [FLUOROURACIL] | 0.074 µg/mL (≈ 0.569 µM) | 0.072 µg/mL (≈ 0.554 µM) | 0.0012 µg/mL (≈ 0.00923 µM) | – | – | – | – |
| C=C(C)CC[C@@H](CC=C(C)C)[C@@H](C(=C)C)[C@](C)(CC=C(C)C)C(=O)c1cccc(O)c1 | – | – | – | inactive | inactive | inactive | – |
| C=C(C)CC[C@@H](C[C@@H]1C[C@]2(CC=C(C)C)C(=O)[C@@](C(=O)c3ccc(O)c(O)c3)(C(=O)C3=C2O[C@@H](C(C)(C)O)C3)C1(C)C)C(=C)C [GARCINIELLIPTONE FB] | – | 6.3 µg/mL (≈ 10.2 µM) | 6.8 µg/mL (≈ 11 µM) | – | – | – | 11.2 µg/mL (≈ 18.1 µM) |
